#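 Method: 48-hour compound exposure of cells in 96-well plates, five concentrations, linear interpolation of endpoints. GI50 marks 50% less growth.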 Calls of active or inactive are those of the source. Rule as the data show it: active = GI50 up to about 1.1 µM and inactive = higher.
# How the values were obtained:
# Experiment in all cases: inhibition of tumour cell growth, NCI panel, 48 h
# LOX IMVI = tested on: LOX IMVI
# A549 = tested on: A549
# NCI-H522 = tested on: NCI-H522
# SN12C = tested on: SN12C
# NCI-H23 = tested on: NCI-H23
# NCI-H460 = tested on: NCI-H460
# HCC 2998 = tested on: HCC 2998
# OVCAR-4 = tested on: OVCAR-4
# SF-295 = tested on: SF-295
# SK-MEL-2 = tested on: SK-MEL-2
# SK-MEL-28 = tested on: SK-MEL-28
# DLD-1 = tested on: DLD-1
# TK-10 = tested on: TK-10
# EKVX = tested on: EKVX
# HT-29 = tested on: HT-29
# UO-31 = tested on: UO-31
# HCT-116 = tested on: HCT-116
# OVCAR-3 = tested on: OVCAR-3
# 786-0 = tested on: 786-0
# SF-268 = tested on: SF-268
# LXFL 529 = tested on: LXFL 529
# SK-MEL-5 = tested on: SK-MEL-5
# HOP-92 = tested on: HOP-92
# SR = tested on: SR
# SNB-75 = tested on: SNB-75
# UACC-257 = tested on: UACC-257
# U-251 = tested on: U-251
# K562 = tested on: K562
# RXF 393 = tested on: RXF 393
# CCRF-CEM = tested on: CCRF-CEM
# HCT-15 = tested on: HCT-15
# UACC-62 = tested on: UACC-62
# NCI-H226 = tested on: NCI-H226
# KM12 = tested on: KM12
# RPMI-8226 = tested on: RPMI-8226
# KM-20L2 = tested on: KM-20L2
# M14 = tested on: M14
# SNB-19 = tested on: SNB-19
# COLO 205 = tested on: COLO 205
# Malme-3M = tested on: Malme-3M
# HOP-62 = tested on: HOP-62
# XF498 = tested on: XF498
# CAKI-1 = tested on: CAKI-1
# OVCAR-8 = tested on: OVCAR-8
# ACHN = tested on: ACHN
# MOLT-4 = tested on: MOLT-4
# SW-620 = tested on: SW-620
# SNB-78 = tested on: SNB-78
# SK-OV-3 = tested on: SK-OV-3
# SF-539 = tested on: SF-539
# HOP-18 = tested on: HOP-18
# DMS-273 = tested on: DMS-273
# OVCAR-5 = tested on: OVCAR-5
# DMS-114 = tested on: DMS-114
# DU-145 = tested on: DU-145
# NCI/ADR-RES = tested on: NCI/ADR-RES
# T47D = tested on: T47D
# IGROV-1 = tested on: IGROV-1
# MDA-N = tested on: MDA-N
# MDA-MB-435 = tested on: MDA-MB-435
# PC-3 = tested on: PC-3
# MDA-MB-231 = tested on: MDA-MB-231
# Hs-578T = tested on: Hs-578T
# MCF7 = tested on: MCF7
# HL-60 = tested on: HL-60
# A498 = tested on: A498
# M19-MEL = tested on: M19-MEL
structure (smiles),measurement,setting,value
CC1(C)OC(=O)C(c2cccs2)C(=O)O1,GI50,LOX IMVI,> 100 µM (inactive)
same,GI50,A549,> 100 µM (inactive)
same,GI50,NCI-H522,> 100 µM (inactive)
same,GI50,SN12C,> 100 µM (inactive)
same,GI50,NCI-H23,> 100 µM (inactive)
same,GI50,NCI-H460,> 100 µM (inactive)
same,GI50,HCC 2998,> 100 µM (inactive)
same,GI50,OVCAR-4,> 100 µM (inactive)
same,GI50,SF-295,> 100 µM (inactive)
same,GI50,SK-MEL-2,> 100 µM (inactive)
same,GI50,SK-MEL-28,> 100 µM (inactive)
same,GI50,DLD-1,> 100 µM (inactive)
same,GI50,TK-10,> 100 µM (inactive)
same,GI50,EKVX,> 100 µM (inactive)
same,GI50,HT-29,> 100 µM (inactive)
same,GI50,UO-31,> 100 µM (inactive)
same,GI50,HCT-116,> 100 µM (inactive)
same,GI50,OVCAR-3,> 100 µM (inactive)
same,GI50,786-0,> 100 µM (inactive)
same,GI50,SF-268,> 100 µM (inactive)
same,GI50,LXFL 529,> 100 µM (inactive)
same,GI50,SK-MEL-5,> 100 µM (inactive)
same,GI50,HOP-92,> 100 µM (inactive)
same,GI50,SR,> 100 µM (inactive)
same,GI50,SNB-75,> 100 µM (inactive)
same,GI50,UACC-257,> 100 µM (inactive)
same,GI50,U-251,> 100 µM (inactive)
same,GI50,K562,> 100 µM (inactive)
same,GI50,RXF 393,> 100 µM (inactive)
same,GI50,CCRF-CEM,> 100 µM (inactive)
same,GI50,HCT-15,> 100 µM
same,GI50,UACC-62,> 100 µM (inactive)
same,GI50,NCI-H226,> 100 µM (inactive)
same,GI50,KM12,> 100 µM (inactive)
same,GI50,RPMI-8226,> 100 µM (inactive)
same,GI50,KM-20L2,> 100 µM (inactive)
same,GI50,M14,> 100 µM (inactive)
same,GI50,SNB-19,> 100 µM (inactive)
same,GI50,COLO 205,> 100 µM (inactive)
same,GI50,Malme-3M,> 100 µM (inactive)
same,GI50,HOP-62,> 100 µM (inactive)
same,GI50,XF498,> 100 µM (inactive)
same,GI50,CAKI-1,> 100 µM (inactive)
same,GI50,OVCAR-8,> 100 µM (inactive)
same,GI50,ACHN,> 100 µM (inactive)
same,GI50,MOLT-4,> 100 µM (inactive)
same,GI50,SW-620,> 100 µM (inactive)
same,GI50,SNB-78,> 100 µM (inactive)
same,GI50,SK-OV-3,> 100 µM (inactive)
same,GI50,SF-539,> 100 µM (inactive)
same,GI50,HOP-18,> 100 µM (inactive)
same,GI50,DMS-273,> 100 µM (inactive)
same,GI50,OVCAR-5,> 100 µM (inactive)
same,GI50,DMS-114,> 100 µM (inactive)
O=C1C=C2S[C@H]3C[C@]2(C=C1Br)C1=C(N3)C(=O)c2[nH]cc3c2C1=NCC3 [(+)-DISCORHABDIN B],GI50,LOX IMVI,0.347 µM (active)
same,GI50,A549,2.47 µM (inactive)
same,GI50,NCI-H522,0.273 µM (active)
same,GI50,SN12C,1.23 µM (inactive)
same,GI50,NCI-H23,1.22 µM (inactive)
same,GI50,NCI-H460,3.05 µM (inactive)
same,GI50,HCC 2998,2.3 µM (inactive)
same,GI50,OVCAR-4,0.218 µM (active)
same,GI50,DU-145,1.92 µM (inactive)
same,GI50,SF-295,1.5 µM (inactive)
same,GI50,NCI/ADR-RES,0.205 µM (active)
same,GI50,SK-MEL-2,0.469 µM (active)
same,GI50,SK-MEL-28,1.4 µM (inactive)
same,GI50,DLD-1,0.617 µM (active)
same,GI50,TK-10,1.4 µM (inactive)
same,GI50,EKVX,1.68 µM (inactive)
same,GI50,HT-29,0.344 µM (active)
same,GI50,UO-31,1.57 µM (inactive)
same,GI50,HCT-116,0.103 µM (active)
same,GI50,OVCAR-3,0.347 µM (active)
same,GI50,786-0,0.883 µM (active)
same,GI50,SF-268,1.54 µM (inactive)
same,GI50,LXFL 529,0.19 µM (active)
same,GI50,SK-MEL-5,1.04 µM (active)
same,GI50,T47D,0.283 µM (active)
same,GI50,HOP-92,0.973 µM (active)
same,GI50,SR,2.69 µM (inactive)
same,GI50,SNB-75,1.55 µM (inactive)
same,GI50,UACC-257,0.213 µM (active)
same,GI50,U-251,1.75 µM (inactive)
same,GI50,K562,0.209 µM (active)
same,GI50,RXF 393,0.272 µM (active)
same,GI50,IGROV-1,1.53 µM (inactive)
same,GI50,CCRF-CEM,0.234 µM (active)
same,GI50,HCT-15,0.745 µM
same,GI50,UACC-62,0.555 µM (active)
same,GI50,MDA-N,0.165 µM (active)
same,GI50,MDA-MB-435,0.158 µM (active)
same,GI50,NCI-H226,2.24 µM (inactive)
same,GI50,KM12,1.6 µM (inactive)
same,GI50,RPMI-8226,0.305 µM (active)
same,GI50,KM-20L2,0.463 µM (active)
same,GI50,M14,0.726 µM (active)
same,GI50,SNB-19,12.4 µM (inactive)
same,GI50,COLO 205,0.0721 µM (active)
same,GI50,PC-3,1.83 µM (inactive)
same,GI50,Malme-3M,0.115 µM (active)
same,GI50,MDA-MB-231,0.305 µM (active)
same,GI50,XF498,1.42 µM (inactive)
same,GI50,CAKI-1,1.69 µM (inactive)
same,GI50,OVCAR-8,0.541 µM (active)
same,GI50,ACHN,0.632 µM (active)
same,GI50,MOLT-4,0.148 µM (active)
same,GI50,SW-620,0.0857 µM (active)
same,GI50,Hs-578T,1.5 µM (inactive)
same,GI50,MCF7,0.52 µM (active)
same,GI50,HL-60,0.0853 µM (active)
same,GI50,SNB-78,1.78 µM (inactive)
same,GI50,SK-OV-3,5.62 µM (inactive)
same,GI50,SF-539,1.63 µM (inactive)
same,GI50,HOP-18,1.78 µM (inactive)
same,GI50,A498,5.65 µM (inactive)
same,GI50,DMS-273,1.17 µM (inactive)
same,GI50,OVCAR-5,1.85 µM (inactive)
CC1C(=O)OC2CC[N+]3(CC(=O)c4ccc(Br)cc4)CC=C(COC(=O)C(C)(O)C1(C)O)C23 (configuration not stated),GI50,LOX IMVI,> 375 µM (inactive)
same,GI50,A549,> 375 µM (inactive)
same,GI50,NCI-H522,> 375 µM (inactive)
same,GI50,SN12C,> 375 µM (inactive)
same,GI50,NCI-H23,> 375 µM (inactive)
same,GI50,NCI-H460,> 375 µM (inactive)
same,GI50,HCC 2998,> 375 µM (inactive)
same,GI50,OVCAR-4,> 375 µM (inactive)
same,GI50,SF-295,> 375 µM (inactive)
same,GI50,NCI/ADR-RES,> 375 µM (inactive)
same,GI50,SK-MEL-2,> 375 µM (inactive)
same,GI50,SK-MEL-28,> 375 µM (inactive)
same,GI50,DLD-1,> 375 µM (inactive)
same,GI50,EKVX,> 375 µM (inactive)
same,GI50,HT-29,> 375 µM (inactive)
same,GI50,UO-31,> 375 µM (inactive)
same,GI50,HCT-116,> 375 µM (inactive)
same,GI50,OVCAR-3,> 375 µM (inactive)
same,GI50,SF-268,> 375 µM (inactive)
same,GI50,SK-MEL-5,> 375 µM (inactive)
same,GI50,HOP-92,> 299 µM (inactive)
same,GI50,SNB-75,> 375 µM (inactive)
same,GI50,UACC-257,> 375 µM (inactive)
same,GI50,U-251,> 375 µM (inactive)
same,GI50,K562,> 375 µM (inactive)
same,GI50,RXF 393,> 375 µM (inactive)
same,GI50,IGROV-1,> 375 µM (inactive)
same,GI50,CCRF-CEM,> 375 µM (inactive)
same,GI50,HCT-15,> 375 µM
same,GI50,UACC-62,> 375 µM (inactive)
same,GI50,NCI-H226,> 375 µM (inactive)
same,GI50,KM12,> 375 µM (inactive)
same,GI50,M19-MEL,> 375 µM (inactive)
same,GI50,RPMI-8226,> 375 µM (inactive)
same,GI50,KM-20L2,> 37.5 µM (inactive)
same,GI50,SNB-19,> 375 µM (inactive)
same,GI50,COLO 205,> 375 µM (inactive)
same,GI50,Malme-3M,> 375 µM (inactive)
same,GI50,HOP-62,> 375 µM (inactive)
same,GI50,XF498,259 µM (inactive)
same,GI50,CAKI-1,> 375 µM (inactive)
same,GI50,OVCAR-8,37.5 µM (inactive)
same,GI50,MOLT-4,> 375 µM (inactive)
same,GI50,SW-620,> 375 µM (inactive)
same,GI50,MCF7,> 375 µM (inactive)
same,GI50,HL-60,361 µM (inactive)
same,GI50,SNB-78,211 µM (inactive)
same,GI50,SK-OV-3,> 375 µM (inactive)
same,GI50,SF-539,> 375 µM (inactive)
same,GI50,HOP-18,> 375 µM (inactive)
same,GI50,A498,> 375 µM (inactive)
same,GI50,DMS-273,> 128 µM (inactive)
same,GI50,OVCAR-5,> 375 µM (inactive)
same,GI50,DMS-114,> 375 µM (inactive)
